Consider 15 molecules from patent US12122761B2, “2-azaspiro[3.4]octane derivatives as M4 agonists” (NOVARTIS AG, priority 2019, dated 2024).

In assay [1] the target is T1, human cloned CHRM5 receptor (M5_CHO) (Homo sapiens, UniProt P08912).
T1 construct: expressed in transfected cells; host or cells: CHO (M5_CHO)
T1 sequence (P08912 1-532): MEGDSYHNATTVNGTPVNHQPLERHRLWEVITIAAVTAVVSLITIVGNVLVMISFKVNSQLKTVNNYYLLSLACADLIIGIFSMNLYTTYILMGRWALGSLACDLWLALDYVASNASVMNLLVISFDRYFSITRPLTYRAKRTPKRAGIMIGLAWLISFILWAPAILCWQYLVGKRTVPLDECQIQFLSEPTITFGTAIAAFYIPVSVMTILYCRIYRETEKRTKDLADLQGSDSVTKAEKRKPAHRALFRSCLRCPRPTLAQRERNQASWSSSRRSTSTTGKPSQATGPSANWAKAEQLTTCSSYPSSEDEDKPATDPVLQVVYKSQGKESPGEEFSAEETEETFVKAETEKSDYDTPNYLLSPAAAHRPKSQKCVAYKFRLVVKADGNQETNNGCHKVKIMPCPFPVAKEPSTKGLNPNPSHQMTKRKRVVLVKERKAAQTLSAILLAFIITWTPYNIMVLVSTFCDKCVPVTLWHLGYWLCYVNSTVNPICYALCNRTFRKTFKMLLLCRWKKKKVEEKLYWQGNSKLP
As to the kind of experiment: CHRM5 Ca++ Flux Assay (agonist mode, FDSS 7000EX). To be noted: for Emax: Percent Activity measured to EC100 of Carbachol, read-out: M5 FDSS PA; for EC50: agonist mode, geometric mean if tested more than once, read-out: M5 FDSS EC50. The assay is classed as cell-based. The gist of the method: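 Agonist responses are measured as calcium mobilization in CHO-K1 cells expressing human M3 or M5, tested over an 11-point dose range in triplicate. Percent activity is normalised to carbachol at EC100.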

Assay [2] deals with T2, human cloned CHRM2 receptor (M2_CHO cells) (Homo sapiens, UniProt P08172).
T2 construct: expressed in transfected cells; host or cells: CHO-K1
T2 sequence (P08172 1-466): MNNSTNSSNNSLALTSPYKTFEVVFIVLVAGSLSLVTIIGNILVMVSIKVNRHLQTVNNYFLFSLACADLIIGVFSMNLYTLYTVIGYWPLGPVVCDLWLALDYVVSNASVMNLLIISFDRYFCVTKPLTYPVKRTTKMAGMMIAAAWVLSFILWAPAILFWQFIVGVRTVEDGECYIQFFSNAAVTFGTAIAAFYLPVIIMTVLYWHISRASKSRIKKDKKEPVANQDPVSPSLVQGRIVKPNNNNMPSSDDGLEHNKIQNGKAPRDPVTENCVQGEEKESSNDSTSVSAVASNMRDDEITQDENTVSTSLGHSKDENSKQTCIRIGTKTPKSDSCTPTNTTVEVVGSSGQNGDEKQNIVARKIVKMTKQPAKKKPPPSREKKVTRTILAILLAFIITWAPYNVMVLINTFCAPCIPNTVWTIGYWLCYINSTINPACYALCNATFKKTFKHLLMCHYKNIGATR
Kind of assay: CHRM2 Ca++ Flux Assay (agonist mode, FDSS 7000EX). The assay is classed as cell-based. The settings on record: for Emax: Percent Activity measured to EC100 of Carbachol, read-out: M2 FDSS PA; for EC50: agonist mode, geometric mean if tested more than once, read-out: M2 FDSS EC50. In outline: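 Agonist-mode Ca++ flux in CHO-K1 cells stably expressing human CHRM2, dye-loaded, then held 60 min at room temperature in buffer with 20 μM ATP before compound addition; traces read over 3 minutes. Four-parameter fit of triplicate wells; percent activity relative to Carbachol EC100.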

With `COc1ccccc1C1CCN([C@@H]2CCC3(C2)CN(c2cnc(C)nc2)C3)CC1` [Example 5E, (R)-6-(4-(2-methoxyphenyl)piperidin-1-yl)-2-(2-methylpyrimidin-5-yl)-2-azaspiro[3.4]octane], in assay [1], the Emax was 0% and the EC50 was above 25 µM. For the same molecule, the Emax in assay [2] was 0%.
On to `COc1ccccc1C1CCN([C@@H]2CCC3(C2)CN(c2cncc(F)c2)C3)CC1` [Example 5F, (R)-2-(5-fluoropyridin-3-yl)-6-(4-(2-methoxyphenyl)piperidin-1-yl)-2-azaspiro[3.4]octane], for which the Emax in assay [1] came out at 17%; in assay [2] it was 26%. For the same molecule, the half-maximal effective concentration (EC50) in assay [1] came out at 14.3 µM.
On the same counts, the results for `COc1ccccc1C1CCN([C@@H]2CCC3(C2)CN(c2cncc(C)n2)C3)CC1` [Example 5G, (R)-6-(4-(2-methoxyphenyl)piperidin-1-yl)-2-(6-methylpyrazin-2-yl)-2-azaspiro[3.4]octane] are 0%, 0% and above 25 µM.
The like results for `COc1ccccc1C1CCN([C@@H]2CCC3(C2)CN(c2cnccn2)C3)CC1` [Example 5H, (R)-6-(4-(2-methoxyphenyl)piperidin-1-yl)-2-(pyrazin-2-yl)-2-azaspiro[3.4]octane] were, in that order, 0%, 0% and above 25 µM.
For the molecule `COc1ccccc1C1CCN([C@@H]2CCC3(C2)CN(c2nccnc2C(F)(F)F)C3)CC1` [Example 5I, (R)-6-(4-(2-methoxyphenyl)piperidin-1-yl)-2-(3-(trifluoromethyl)pyrazin-2-yl)-2-azaspiro[3.4]octane], in assay [1], the Emax was found to be 0% and the EC50 is above 25 µM. For the same molecule, in assay [2], the Emax is 49% and the EC50 amounted to 13.2 µM.
With `COc1ccccc1C1CCN([C@@H]2CCC3(C2)CN(c2nccnc2C)C3)CC1` [Example 5J, (R)-6-(4-(2-methoxyphenyl)piperidin-1-yl)-2-(3-methylpyrazin-2-yl)-2-azaspiro[3.4]octane], in assay [1], the Emax was 0% and the EC50 is above 25 µM. In addition, the Emax in assay [2] stood at 0%.
Regarding `COc1ccccc1C1CCN([C@@H]2CCC3(C2)CN(c2cccnc2)C3)CC1` [Example 5K, (R)-6-(4-(2-methoxyphenyl)piperidin-1-yl)-2-(pyridin-3-yl)-2-azaspiro[3.4]octane], the results for the Emax in assay [1] and in assay [2] were 0% and 18%, respectively. Moreover, the EC50 in assay [1] is above 25 µM.
In the case of `Cc1ccc(N2CC3(CC[C@@H](N4CCC(c5ccccc5O[C@@H]5CCOC5)CC4)C3)C2)cn1` [Example 5L, (R)-2-(6-methylpyridin-3-yl)-6-(4-(2-(((R)-tetrahydrofuran-3-yl)oxy)phenyl)piperidin-1-yl)-2-azaspiro[3.4]octane], in assay [1], the Emax is 17% and the EC50 turned out to be 14.4 µM. In assay [2], the Emax is 36% and the EC50 was 7.88 µM.
Consider `COc1ccccc1C1CCN([C@@H]2CCC3(C2)CN(c2ncnc(C)n2)C3)CC1` [Example 5M, (R)-6-(4-(2-methoxyphenyl)piperidin-1-yl)-2-(4-methyl-1,3,5-triazin-2-yl)-2-azaspiro[3.4]octane], for which the Emax in assay [1] and in assay [2] was 0% in each case. Besides, in assay [1], the EC50 is above 25 µM.
As to `COc1ccccc1C1CCN([C@@H]2CCC3(C2)CN(c2ccc(Cl)nn2)C3)CC1` [Example 5N, (R)-2-(6-chloropyridazin-3-yl)-6-(4-(2-methoxyphenyl)piperidin-1-yl)-2-azaspiro[3.4]octane], the Emax in assay [1] is 8%; in assay [2], 35%. Besides, the EC50 in assay [1] was determined as 22.9 µM.
As to `COc1ccccc1C1CCN([C@@H]2CCC3(C2)CN(c2cccnn2)C3)CC1` [Example 5O, (R)-6-(4-(2-methoxyphenyl)piperidin-1-yl)-2-(pyridazin-3-yl)-2-azaspiro[3.4]octane], in assay [1], the Emax worked out at 0% and the EC50 is above 25 µM. Moreover, the Emax in assay [2] was 0%.
Take `COc1ccc(Cl)cc1C1CCN([C@@H]2CCC3(C2)CN(c2ccnnc2)C3)CC1` [Example 5P, (R)-6-(4-(5-chloro-2-methoxyphenyl)piperidin-1-yl)-2-(pyridazin-4-yl)-2-azaspiro[3.4]octane]: in assay [1], the Emax worked out at 8% and the EC50 was found to be 13.4 µM. Besides, in assay [2], the Emax stood at 16%.
As for `c1ccc(C2CCN([C@@H]3CCC4(C3)CN(c3ncncn3)C4)CC2)c(OCC2CCOCC2)c1` [Example 5Q, (R)-6-(4-(2-((tetrahydro-2H-pyran-4-yl)methoxy)phenyl)piperidin-1-yl)-2-(1,3,5-triazin-2-yl)-2-azaspiro[3.4]octane], in assay [1], the Emax was found to be 0% and the EC50 was above 25 µM. Besides, in assay [2], the Emax was 0%.
`COc1ccccc1C1CCN([C@@H]2CCC3(C2)CN(c2cc(Cl)nnc2Cl)C3)CC1` [Example 5R, (R)-2-(3,6-dichloropyridazin-4-yl)-6-(4-(2-methoxyphenyl)piperidin-1-yl)-2-azaspiro[3.4]octane]: in assay [1], the Emax was 1% and the EC50 is above 25 µM. Also, the Emax in assay [2] came out at 0%.
On the same counts, the results for `COc1ccccc1C1CCN([C@@H]2CCC3(C2)CN(c2ccnnc2)C3)CC1` [Example 5S, (R)-6-(4-(2-methoxyphenyl)piperidin-1-yl)-2-(pyridazin-4-yl)-2-azaspiro[3.4]octane] are 0%, above 25 µM and 0%.

The term EC50 denotes the midpoint of the concentration-response curve.
